This note sets out measurements from US11173144B2, “Adrenergic receptor modulating compounds and methods of using the same” (The Board of Trustees of the Leland Stanford Junior …, priority 2016, dated 2021).

Entries after “also recorded” stand apart in the source; their conditions may differ.

In data set [1] the test system is panel of CNS relevant targets, including G-protein coupled receptor and transporters. Nature of the data set: Screen against a panel of CNS relevant targets (off-target affinity). The data set is classed as binding. An excerpt:
(§1) From a drug development perspective, characterizing the off-target effects of lead compounds is an important issue, as interactions with off-target molecules may lead to undesirable side effects. Thus we screened xamoterol (S) and the key compound compound 43 against a panel of CNS relevant targets, including G-protein coupled receptor and transporters. […].

The target in a further data set is 5-HT1A (Homo sapiens (Human), UniProt P08908). Kind of data set: CNS target panel screen: 5-HT1A. Format: binding.
Excerpt: as §1

The target in the next data set is 5-HT2B (Homo sapiens (Human), UniProt P41595). Kind of data set: CNS target panel screen: 5-HT2B. Format: binding. An excerpt:
From a drug development perspective, characterizing the off-target effects of lead compounds is an important issue, as interactions with off-target molecules may lead to undesirable side effects. Thus we screened xamoterol (S) and the key compound compound 43 against a panel of CNS relevant targets, including G-protein coupled receptor and transporters.

The next data set deals with α1A adrenergic receptor (Homo sapiens (Human), UniProt P35348). Nature of the data set: CNS target panel screen: α1A adrenergic receptor. The data set is classed as binding.
Excerpt: as §1

In a further data set the target is α1D adrenergic receptor (Homo sapiens (Human), UniProt P25100). Nature of the data set: CNS target panel screen: α1D adrenergic receptor. Format: binding.
Excerpt: as §1

Another data set deals with D3 dopaminergic receptor (Homo sapiens (Human), UniProt P35462). Nature of the data set: CNS target panel screen: D3 dopaminergic receptor. Format: binding.
Excerpt: as §1

Data set [2] relates to LPS-induced TNF-α response. Kind of data set: In vivo LPS assay. The arrangement: species or system C57BI/6J mice. The following applies: mice, 3 mg/kg 15 min prior to LPS, 90 min post-LPS. As to the method: Amplification is performed using StepOnePlus (Applied Biosystems).
Following injections, mice are single-housed. At 90 min post-LPS/saline, mice are deeply anesthetized with isoflurane and blood is collected from the right ventricle via cardiac puncture (23 g needle) into lithium heparin-containing vials (BD microtainer plasma tubes). Plasma is separated by centrifugation (11,000 rpm for 3 minutes) within 30 min of collection and stored at −80° C. until analysis. The concentration of TNF-α in the collected plasma is measured by ELISA (Invitrogen, KMC3012) according to the manufacturer's instruction.

The nature of data set [3]: Microsomal stability assay, mouse. The following applies: 0.1 uM.
Data set [4] relates to Abeta-induced LTP impairment in hippocampal slices. Kind of data set: Long-term potentiation in hippocampal slices exposed to amyloid beta. The conditions noted are these: mouse hippocampal slices, 10 uM. As to the method: Mice were anesthetized with isoflurane before decapitation. The brain was quickly removed and immersed for 2 min in ice-cold low-calcium modified artificial cerebrospinal fluid (mACSF) composed of (in mM): 119 NaCl, 2.5 KCl, 1 CaCl2, 3 MgSO4, 1 NaH2PO4, 26 NaHCO3 and 10 glucose, osmolarity ˜305 mOsm, continuously bubbled with 95% O2-5% CO2, pH=7.4. The hippocampus was dissected out and cut in ice-cold mACSF with a vibratome (Leica VT1000S; Nussloch, Germany) into […] slices from the middle part of the hippocampus. The slices were allowed to recover in oxygenated mACSF at 33° C. for 10 min, and then at room temperature for an additional 2-3 hr before experimental recordings. Slices were transferred into the recording chamber and superfused with regular ACSF containing (in mM): 119 NaCl, 2.5 KCl, 2.5 CaCl2, 1.3 MgSO4, 1 NaH2PO4, 26 NaHCO3 and 10 glucose, continuously bubbled with 95% O2-5% C02, pH=7.4, osmolarity ˜305 mOsm, at a constant rate of 2.7 mL/min at 32° C. […] The initial slope of field excitatory postsynaptic potentials (fEPSP) was measured at latencies 0.1-0.9 ms. […] After stabilization of responses, input-output dependences were measured using series of stimulation intensities (range 30-150 μA). […] LTP was induced by high-frequency tetanization ([…], 100 Hz for 1 sec), and the responses were recorded for the period of 1.5 h after the tetanus.

The test system of data set [5] is transient middle cerebral artery occlusion (tMCAO) model of stroke. Nature of the data set: tMCAO model of stroke, infarction volume. Format: in vivo. The conditions noted are these: rat tMCAO, 3 mg/kg, 21 days. As to the method: The tMCAO is performed on animal under isoflurane inhalation anesthesia (4% for induction and 1.5-2.5% for maintenance) in airoxygen mixture ratio 3:1. Ventral neck area is shaved by electric razor and disinfected using betadine followed by 70% ethanol solution. Subsequently, a midline incision is made in the ventral neck area, sharp and blunt dissection techniques are used to isolate left common carotid artery (CCA) and the internal and external carotid arteries (ICA and ECA, respectively). The proximal CCA is ligated below the bifurcation using 3-0 braided silk suture allowing enough room for filament insertion in the area between the ligation and bifurcation. Subsequently, ECA is ligated at its origin dose to the CCA bifurcation, so that the occipital artery stays proximal to the ligature. A microvessel dip is placed on ICA temporarily to avoid excessive bleeding during filament insertion. In order to occlude the origin of middle cerebral artery (MCA), a monofilament with silicon coated tip (0.39 mm diameter, 5-6 mm long) is then inserted into the CCA, the microvessel dip removed following filament advancement into the ICA 20 mm from the bifurcation through small, horizontal incision. The filament is secured in its place by a suture knot placed between the bifurcation and proximal CCA ligature. […]

In a further data set the test system is C57bl/6J mice. Kind of data set: Neurogenesis, doublecortin-immunoreactive neuroblast counts in dentate gyrus. The conditions noted are these: 0.3 mg/kg subcutaneous daily from 3.5 to 6.0 months of age.
In a further data set the test system is 5XFAD mice. Kind of data set: Chronic xamoterol in 5XFAD mouse model of Alzheimer's disease, cortex qRT-PCR of inflammation genes. The conditions noted are these: 3 mg/kg/day by mini-osmotic pump, 2.5 months. (Real-time PCR tracks product formation cycle by cycle.)

Chain of 5-HT2B (P41595 whole entry, species assumed): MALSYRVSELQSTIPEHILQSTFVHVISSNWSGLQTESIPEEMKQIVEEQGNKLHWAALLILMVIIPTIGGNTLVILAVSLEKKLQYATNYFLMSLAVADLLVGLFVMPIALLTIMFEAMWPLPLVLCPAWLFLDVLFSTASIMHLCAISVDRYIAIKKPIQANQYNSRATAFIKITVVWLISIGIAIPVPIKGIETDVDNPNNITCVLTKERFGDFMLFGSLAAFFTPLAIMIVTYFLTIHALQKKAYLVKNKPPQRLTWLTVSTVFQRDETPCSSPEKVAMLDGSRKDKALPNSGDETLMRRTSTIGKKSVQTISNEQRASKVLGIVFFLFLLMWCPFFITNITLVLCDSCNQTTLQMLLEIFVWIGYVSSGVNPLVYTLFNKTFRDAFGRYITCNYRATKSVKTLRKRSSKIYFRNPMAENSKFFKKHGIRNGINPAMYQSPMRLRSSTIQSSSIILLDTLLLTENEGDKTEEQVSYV
Chain of 5-HT1A (P08908 whole entry, species assumed): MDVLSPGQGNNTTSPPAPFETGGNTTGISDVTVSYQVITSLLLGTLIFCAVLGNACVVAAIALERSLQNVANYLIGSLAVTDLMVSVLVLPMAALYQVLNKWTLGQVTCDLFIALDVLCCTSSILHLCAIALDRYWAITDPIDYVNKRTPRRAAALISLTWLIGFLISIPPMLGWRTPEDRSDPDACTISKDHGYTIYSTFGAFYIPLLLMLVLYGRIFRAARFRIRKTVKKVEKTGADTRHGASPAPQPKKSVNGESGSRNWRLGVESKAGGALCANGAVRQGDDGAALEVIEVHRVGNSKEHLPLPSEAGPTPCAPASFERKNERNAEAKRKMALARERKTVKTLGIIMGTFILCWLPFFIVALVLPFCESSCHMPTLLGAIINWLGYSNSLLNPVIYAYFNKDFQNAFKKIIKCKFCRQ
Chain of α1A adrenergic receptor (P35348 whole entry): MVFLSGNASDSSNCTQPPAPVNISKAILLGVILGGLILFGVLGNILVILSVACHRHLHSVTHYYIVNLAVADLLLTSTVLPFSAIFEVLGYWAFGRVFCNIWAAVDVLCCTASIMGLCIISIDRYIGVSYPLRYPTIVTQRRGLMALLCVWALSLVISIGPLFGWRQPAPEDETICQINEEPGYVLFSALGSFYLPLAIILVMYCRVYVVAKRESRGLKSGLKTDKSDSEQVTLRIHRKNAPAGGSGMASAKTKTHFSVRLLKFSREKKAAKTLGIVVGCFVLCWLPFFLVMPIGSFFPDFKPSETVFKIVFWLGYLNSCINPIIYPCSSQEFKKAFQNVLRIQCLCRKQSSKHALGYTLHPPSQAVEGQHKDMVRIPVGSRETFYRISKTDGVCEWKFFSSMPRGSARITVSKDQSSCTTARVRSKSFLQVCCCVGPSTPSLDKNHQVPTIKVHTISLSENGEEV
Chain of α1D adrenergic receptor (P25100 whole entry): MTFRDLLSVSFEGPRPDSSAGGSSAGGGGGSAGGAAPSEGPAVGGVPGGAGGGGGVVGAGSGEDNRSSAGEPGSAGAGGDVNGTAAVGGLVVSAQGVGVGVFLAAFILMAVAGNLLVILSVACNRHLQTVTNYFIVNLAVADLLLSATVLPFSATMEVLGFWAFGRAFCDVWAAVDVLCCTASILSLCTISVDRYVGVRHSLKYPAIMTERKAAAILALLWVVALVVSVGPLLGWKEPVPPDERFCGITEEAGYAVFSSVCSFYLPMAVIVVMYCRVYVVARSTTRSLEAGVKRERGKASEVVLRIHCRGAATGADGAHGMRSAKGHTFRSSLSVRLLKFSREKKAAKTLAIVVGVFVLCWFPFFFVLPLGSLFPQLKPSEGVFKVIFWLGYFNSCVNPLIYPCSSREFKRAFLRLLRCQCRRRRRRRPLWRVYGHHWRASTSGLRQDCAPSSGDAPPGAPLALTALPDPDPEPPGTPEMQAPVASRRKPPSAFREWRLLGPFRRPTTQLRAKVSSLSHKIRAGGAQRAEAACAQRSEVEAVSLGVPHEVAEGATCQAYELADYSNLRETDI
Chain of D3 dopaminergic receptor (P35462 whole entry): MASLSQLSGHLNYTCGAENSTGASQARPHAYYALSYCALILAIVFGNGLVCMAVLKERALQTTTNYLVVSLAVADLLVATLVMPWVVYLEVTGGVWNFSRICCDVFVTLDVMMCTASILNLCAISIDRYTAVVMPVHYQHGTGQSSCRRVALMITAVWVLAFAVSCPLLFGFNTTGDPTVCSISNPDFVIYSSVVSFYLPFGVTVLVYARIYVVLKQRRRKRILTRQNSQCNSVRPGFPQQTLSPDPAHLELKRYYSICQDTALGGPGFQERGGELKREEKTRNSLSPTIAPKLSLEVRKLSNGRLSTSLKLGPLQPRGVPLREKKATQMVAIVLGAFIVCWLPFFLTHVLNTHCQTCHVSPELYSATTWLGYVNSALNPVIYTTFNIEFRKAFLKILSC

Regarding `COc1ccccc1OCCNC[C@H](O)COc1ccc(O)cc1` [Compound 43], the “affinity for opioid, histamine, and muscarinic acetylcholine receptors” value in data set [1] is recorded as “nominal affinity”. The “affinity for 5-HT1A” value on 5-HT1A is on record as “significant affinity”. Further, the “affinity for 5-HT2B” value on 5-HT2B is recorded as “significant affinity”. Also, at α1A adrenergic receptor, the “affinity for α1A adrenergic receptor” value is “significant affinity”. Moreover, the “affinity for α1D adrenergic receptor” value on α1D adrenergic receptor was “significant affinity”. In addition, the “affinity for D3 dopaminergic receptor” value on D3 dopaminergic receptor is on record as “significant affinity”. Also, in data set [2], the “LPS-induced TNF-α response in periphery (plasma)” value is reported as “markedly inhibited” and the “LPS-induced inflammatory response in the brain (TNF-α, IL-1β, IL-6 gene expression)” value is “attenuated”. Further, the “compound remaining after 60 minutes in mouse liver microsomes” value in data set [3] is recorded as 62.8%.

With `O=C(NCCNCC(O)COc1ccc(O)cc1)N1CCOCC1` (stereo not shown) [Xamoterol, reference compound], in data set [4], the “amyloid beta-induced LTP impairment” value was “blocks the LTP impairment induced by Ab; also recorded: blocks the Ab-induced LTP in impairment”. For the same compound, the infarction volume result in data set [5] is “reduces infarction volume”. In addition, in the data set on C57bl/6J mice, the “neurogenesis (neuroblast counts in dentate gyrus)” value is “increases neurogenesis”. Moreover, in the data set on 5XFAD mice, the “expression of inflammation genes in cortex” value is “attenuated elevated expression of Iba1, CD74, CD14 and TGFb”.
